Legend:
[1] = tested on: COLO 205; assay: NCI-60 SRB growth inhibition, one-dose and five-dose; assay type: cell-based; details: Homo sapiens
[2] = tested on: A498; assay: as above; assay type: cell-based; details: Homo sapiens
[3] = tested on: UACC-257; assay: as above; assay type: cell-based; details: Homo sapiens
[4] = tested on: MOLT-4; assay: as above; assay type: cell-based; details: Homo sapiens
[5] = tested on: SK-MEL-2; assay: as above; assay type: cell-based; details: Homo sapiens
[6] = tested on: NCI-H460; assay: as above; assay type: cell-based; details: Homo sapiens
[7] = tested on: K-562; assay: as above; assay type: cell-based; details: Homo sapiens
[8] = tested on: OVCAR-5; assay: as above; assay type: cell-based; details: Homo sapiens
[9] = tested on: LOX IMVI; assay: as above; assay type: cell-based; details: Homo sapiens
[10] = tested on: BT-549; assay: as above; assay type: cell-based; details: Homo sapiens
[11] = tested on: HT29; assay: as above; assay type: cell-based; details: Homo sapiens
[12] = tested on: EKVX; assay: as above; assay type: cell-based; details: Homo sapiens
[13] = tested on: SK-MEL-5; assay: as above; assay type: cell-based; details: Homo sapiens
[14] = tested on: CAKI-1; assay: as above; assay type: cell-based; details: Homo sapiens
[15] = tested on: MCF7; assay: as above; assay type: cell-based; details: Homo sapiens
[16] = tested on: MDA-MB-468; assay: as above; assay type: cell-based; details: Homo sapiens
[17] = tested on: U251; assay: as above; assay type: cell-based; details: Homo sapiens
[18] = tested on: NCI/ADR-RES; assay: as above; assay type: cell-based; details: Homo sapiens
[19] = tested on: DU-145; assay: as above; assay type: cell-based; details: Homo sapiens
[20] = tested on: SK-MEL-28; assay: as above; assay type: cell-based; details: Homo sapiens
[21] = tested on: T-47D; assay: as above; assay type: cell-based; details: Homo sapiens, T47D
[22] = tested on: SF-295; assay: as above; assay type: cell-based; details: Homo sapiens
[23] = tested on: CCRF-CEM; assay: as above; assay type: cell-based; details: Homo sapiens
[24] = tested on: SW-620; assay: as above; assay type: cell-based; details: Homo sapiens
[25] = tested on: RXF 393; assay: as above; assay type: cell-based; details: Homo sapiens
[26] = tested on: SNB-19; assay: as above; assay type: cell-based; details: Homo sapiens
[27] = tested on: OVCAR-3; assay: as above; assay type: cell-based; details: Homo sapiens
[28] = tested on: HOP-92; assay: as above; assay type: cell-based; details: Homo sapiens
[29] = tested on: OVCAR-4; assay: as above; assay type: cell-based; details: Homo sapiens
[30] = tested on: SK-OV-3; assay: as above; assay type: cell-based; details: Homo sapiens
[31] = tested on: NCI-H522; assay: as above; assay type: cell-based; details: Homo sapiens
[32] = tested on: MALME-3M; assay: as above; assay type: cell-based; details: Homo sapiens
[33] = tested on: SF-268; assay: as above; assay type: cell-based; details: Homo sapiens
[34] = tested on: SNB-75; assay: as above; assay type: cell-based; details: Homo sapiens
[35] = tested on: NCI-H322M; assay: as above; assay type: cell-based; details: Homo sapiens
[36] = tested on: 786-0; assay: as above; assay type: cell-based; details: Homo sapiens
[37] = tested on: HCT-15; assay: as above; assay type: cell-based; details: Homo sapiens
[38] = tested on: A549/ATCC; assay: as above; assay type: cell-based; details: Homo sapiens
[39] = tested on: NCI-H23; assay: as above; assay type: cell-based; details: Homo sapiens
[40] = tested on: M14; assay: as above; assay type: cell-based; details: Homo sapiens
[41] = tested on: SR; assay: as above; assay type: cell-based; details: Homo sapiens
[42] = tested on: NCI 60-cell line panel (full panel); assay: NCI-60 SRB growth inhibition, full panel mean / MG-MID; assay type: cell-based, human
[43] = read-out: percent growth inhibition

Structure (SMILES): CC(=O)Nc1ccc(/C=C/C(=O)c2cccc(NCc3ccc(C)cc3)c2)cc1 [Compound 5f, (E)-N-(4–(3-(3-((4-methylbenzyl)amino)phenyl)-3-oxoprop-1-en-1-yl)phenyl)acetamide]
- GI50 ([1]; COLO 205): 16 µM
- inhibition at 10 µM ([1]; COLO 205, read-out: percent growth inhibition): 53.7%
- GI50 ([2]; A498): 17.9 µM
- inhibition at 10 µM ([2]; A498, read-out: percent growth inhibition): -0.63%
- GI50 ([3]; UACC-257): 14.2 µM
- inhibition at 10 µM ([3]; UACC-257, read-out: percent growth inhibition): 15.7%
- GI50 ([4]; MOLT-4): 2.69 µM
- inhibition at 10 µM ([4]; MOLT-4, read-out: percent growth inhibition): 62%
- GI50 ([5]; SK-MEL-2): 11.5 µM
- inhibition at 10 µM ([5]; SK-MEL-2, read-out: percent growth inhibition): 16.5%
- GI50 ([6]; NCI-H460): 4.18 µM
- inhibition at 10 µM ([6]; NCI-H460, read-out: percent growth inhibition): 68%
- GI50 ([7]; K562): 3.04 µM
- inhibition at 10 µM ([7]; K562, read-out: percent growth inhibition): 64.2%
- GI50 ([8]; OVCAR-5): 18.5 µM
- inhibition at 10 µM ([8]; OVCAR-5, read-out: percent growth inhibition): 29.2%
- GI50 [9]: 2.97 µM
- inhibition at 10 µM [9, 43]: 157%
- GI50 ([10]; BT-549): 5.26 µM
- inhibition at 10 µM ([10]; BT-549, read-out: percent growth inhibition): 66%
- GI50 ([11]; HT-29): 10.7 µM
- inhibition at 10 µM ([11]; HT-29, read-out: percent growth inhibition): 128%
- GI50 [12]: 12.6 µM
- inhibition at 10 µM [12, 43]: 20.9%
- GI50 ([13]; SK-MEL-5): 7.24 µM
- inhibition at 10 µM ([13]; SK-MEL-5, read-out: percent growth inhibition): 49.6%
- GI50 ([14]; CAKI-1): 10.8 µM
- inhibition at 10 µM ([14]; CAKI-1, read-out: percent growth inhibition): 23.2%
- GI50 ([15]; MCF7): 3.37 µM
- inhibition at 10 µM ([15]; MCF7, read-out: percent growth inhibition): 90.5%
- GI50 ([16]; MDA-MB-468): 4.23 µM
- inhibition at 10 µM ([16]; MDA-MB-468, read-out: percent growth inhibition): 85.6%
- GI50 ([17]; U-251): 3.89 µM
- inhibition at 10 µM ([17]; U-251, read-out: percent growth inhibition): 127%
- GI50 [18]: 3.72 µM
- GI50 ([19]; DU-145): 7.44 µM
- inhibition at 10 µM ([19]; DU-145, read-out: percent growth inhibition): 62.1%
- GI50 ([20]; SK-MEL-28): 15.2 µM
- inhibition at 10 µM ([20]; SK-MEL-28, read-out: percent growth inhibition): 25%
- GI50 [21]: 10.2 µM
- inhibition at 10 µM [21, 43]: 86.5%
- GI50 ([22]; SF-295): 15.7 µM
- inhibition at 10 µM ([22]; SF-295, read-out: percent growth inhibition): 27.7%
- GI50 [23]: 2.84 µM
- inhibition at 10 µM [23, 43]: 87.2%
- GI50 ([24]; SW-620): 2.17 µM
- inhibition at 10 µM ([24]; SW-620, read-out: percent growth inhibition): 156%
- GI50 ([25]; RXF 393): 10.9 µM
- inhibition at 10 µM ([25]; RXF 393, read-out: percent growth inhibition): 32.9%
- GI50 ([26]; SNB-19): 12.4 µM
- inhibition at 10 µM ([26]; SNB-19, read-out: percent growth inhibition): 31.4%
- GI50 ([27]; OVCAR-3): 3.19 µM
- inhibition at 10 µM ([27]; OVCAR-3, read-out: percent growth inhibition): 78%
- GI50 ([28]; HOP-92): 15.5 µM
- inhibition at 10 µM ([28]; HOP-92, read-out: percent growth inhibition): 8.52%
- GI50 ([29]; OVCAR-4): 6.18 µM
- inhibition at 10 µM ([29]; OVCAR-4, read-out: percent growth inhibition): 56.1%
- GI50 ([30]; SK-OV-3): 25.8 µM
- inhibition at 10 µM ([30]; SK-OV-3, read-out: percent growth inhibition): 31.6%
- GI50 ([31]; NCI-H522): 11 µM
- inhibition at 10 µM ([31]; NCI-H522, read-out: percent growth inhibition): 106%
- GI50 [32]: 12.3 µM
- inhibition at 10 µM [32, 43]: 31.1%
- GI50 ([33]; SF-268): 4.58 µM
- inhibition at 10 µM ([33]; SF-268, read-out: percent growth inhibition): 45.8%
- GI50 ([34]; SNB-75): 12.5 µM
- inhibition at 10 µM ([34]; SNB-75, read-out: percent growth inhibition): 32.3%
- GI50 [35]: 15.1 µM
- inhibition at 10 µM [35, 43]: 22.5%
- GI50 ([36]; 786-0): 10.3 µM
- inhibition at 10 µM ([36]; 786-0, read-out: percent growth inhibition): 60.4%
- GI50 ([37]; HCT-15): 3.31 µM
- inhibition at 10 µM ([37]; HCT-15, read-out: percent growth inhibition): 113%
- GI50 ([38]; A549): 24.6 µM
- inhibition at 10 µM ([38]; A549, read-out: percent growth inhibition): 30.5%
- GI50 ([39]; NCI-H23): 10.4 µM
- inhibition at 10 µM ([39]; NCI-H23, read-out: percent growth inhibition): 26.2%
- GI50 ([40]; M14): 14 µM
- inhibition at 10 µM ([40]; M14, read-out: percent growth inhibition): 54.7%
- GI50 [41]: 1.51 µM
- inhibition at 10 µM [41, 43]: 96.5%
- GI50 ([42]; Homo sapiens, 60 cell, read-out: Full panel GI50 mean): 9.25 µM
- Full panel Mean GI % ([42]; mean over NCI-60 panel, single dose 10 µM): 61.75%

Source: publication PMC11003488 (Journal of Enzyme Inhibition and Medicinal Chemistry, 2023)
